Experimental data reported in PubChem BioAssay (NCI).
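All cell lines were grown in 96-well plates and treated with compound for 48 hours. GI50 is the concentration that inhibits growth by half. TGI: total growth inhibition.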

How the values were obtained:
Assay in all cases: growth of human tumour cells (NCI), 48 h
NCI-H23 lung = tested on: NCI-H23 lung
SK-MEL-5 melanoma = tested on: SK-MEL-5 melanoma
KM12 colon = tested on: KM12 colon
UO-31 renal = tested on: UO-31 renal
SK-MEL-2 melanoma = tested on: SK-MEL-2 melanoma
SK-OV-3 ovarian = tested on: SK-OV-3 ovarian
SR leukemia = tested on: SR leukemia
MOLT-4 leukemia = tested on: MOLT-4 leukemia
IGROV1 ovarian = tested on: IGROV1 ovarian
K-562 leukemia = tested on: K-562 leukemia
HCC-2998 colon = tested on: HCC-2998 colon
EKVX NSCLC = tested on: EKVX NSCLC
OVCAR-3 ovarian = tested on: OVCAR-3 ovarian
U251 CNS = tested on: U251 CNS
NCI/ADR-RES ovarian = tested on: NCI/ADR-RES ovarian
M14 melanoma = tested on: M14 melanoma
CAKI-1 renal = tested on: CAKI-1 renal
RPMI-8226 leukemia = tested on: RPMI-8226 leukemia
BT-549 breast = tested on: BT-549 breast
CCRF-CEM leukemia = tested on: CCRF-CEM leukemia
LOX IMVI melanoma = tested on: LOX IMVI melanoma
A549 NSCLC = tested on: A549 NSCLC
SW-620 colon = tested on: SW-620 colon
HCT-116 colon = tested on: HCT-116 colon
PC-3 prostate = tested on: PC-3 prostate
MCF7 breast = tested on: MCF7 breast
NCI-H460 lung = tested on: NCI-H460 lung
MDA-MB-435 = tested on: MDA-MB-435
RXF 393 renal = tested on: RXF 393 renal
HT29 colon = tested on: HT29 colon
SF-295 CNS = tested on: SF-295 CNS
TK-10 renal = tested on: TK-10 renal
MDA-MB-231 breast = tested on: MDA-MB-231 breast
ACHN renal = tested on: ACHN renal
SF-539 CNS = tested on: SF-539 CNS
SF-268 CNS = tested on: SF-268 CNS
HL-60(TB) leukemia = tested on: HL-60(TB) leukemia
SNB-19 CNS = tested on: SNB-19 CNS
NCI-H226 lung = tested on: NCI-H226 lung
SK-MEL-28 melanoma = tested on: SK-MEL-28 melanoma
HS 578T breast = tested on: HS 578T breast
786-0 renal = tested on: 786-0 renal
A498 renal = tested on: A498 renal
HCT-15 colon = tested on: HCT-15 colon
T-47D breast = tested on: T-47D breast
OVCAR-4 ovarian = tested on: OVCAR-4 ovarian
SN12C renal = tested on: SN12C renal
OVCAR-8 ovarian = tested on: OVCAR-8 ovarian
UACC-62 melanoma = tested on: UACC-62 melanoma
MALME-3M melanoma = tested on: MALME-3M melanoma
NCI-H522 lung = tested on: NCI-H522 lung
SNB-75 CNS = tested on: SNB-75 CNS
HOP-92 NSCLC = tested on: HOP-92 NSCLC
DU-145 prostate = tested on: DU-145 prostate
UACC-257 melanoma = tested on: UACC-257 melanoma
OVCAR-5 ovarian = tested on: OVCAR-5 ovarian
COLO 205 colon = tested on: COLO 205 colon
HOP-62 NSCLC = tested on: HOP-62 NSCLC

Question: Which results are given for `CN1CCN(Cc2ccc(NC(=O)c3cncc(C#Cc4cnc5ccc(N)nn45)c3)cc2C(F)(F)F)CC1`?
Answer: GI50 (NCI-H23 lung): 777 nM; TGI (NCI-H23 lung): 2860 nM; GI50 (SK-MEL-5 melanoma): 3730 nM; TGI (SK-MEL-5 melanoma): 10300 nM; GI50 (KM12 colon): 8.16 nM; TGI (KM12 colon): 1070 nM; GI50 (UO-31 renal): 5050 nM; TGI (UO-31 renal): 12900 nM; GI50 (SK-MEL-2 melanoma): 591 nM; TGI (SK-MEL-2 melanoma): 1940 nM; GI50 (SK-OV-3 ovarian): 2540 nM; TGI (SK-OV-3 ovarian): 25700 nM; GI50 (SR leukemia): 264 nM; TGI (SR leukemia): 2240 nM; GI50 (MOLT-4 leukemia): 369 nM; TGI (MOLT-4 leukemia): 5810 nM; GI50 (IGROV1 ovarian): 1070 nM; TGI (IGROV1 ovarian): 4640 nM; GI50 (K-562 leukemia): 5 nM; TGI (K-562 leukemia): 18100 nM; GI50 (HCC-2998 colon): 1180 nM; TGI (HCC-2998 colon): 5650 nM; GI50 (EKVX NSCLC): 2630 nM; TGI (EKVX NSCLC): 13300 nM; GI50 (OVCAR-3 ovarian): 1670 nM; TGI (OVCAR-3 ovarian): 12600 nM; GI50 (U251 CNS): 1300 nM; TGI (U251 CNS): 6980 nM; GI50 (NCI/ADR-RES ovarian): 25600 nM; TGI (NCI/ADR-RES ovarian): 50000 nM; GI50 (M14 melanoma): 690 nM; TGI (M14 melanoma): 1570 nM; GI50 (CAKI-1 renal): 1570 nM; TGI (CAKI-1 renal): 5830 nM; GI50 (RPMI-8226 leukemia): 1490 nM; TGI (RPMI-8226 leukemia): 5090 nM; GI50 (BT-549 breast): 2070 nM; TGI (BT-549 breast): 6050 nM; GI50 (CCRF-CEM leukemia): 240 nM; TGI (CCRF-CEM leukemia): 50000 nM; GI50 (LOX IMVI melanoma): 510 nM; TGI (LOX IMVI melanoma): 1280 nM; GI50 (A549 NSCLC): 1620 nM; TGI (A549 NSCLC): 5890 nM; GI50 (SW-620 colon): 356 nM; TGI (SW-620 colon): 3110 nM; GI50 (HCT-116 colon): 233 nM; TGI (HCT-116 colon): 2890 nM; GI50 (PC-3 prostate): 1330 nM; TGI (PC-3 prostate): 10800 nM; GI50 (MCF7 breast): 284 nM; TGI (MCF7 breast): 2370 nM; GI50 (NCI-H460 lung): 526 nM; TGI (NCI-H460 lung): 3290 nM; GI50 (MDA-MB-435): 674 nM; TGI (MDA-MB-435): 5780 nM; GI50 (RXF 393 renal): 842 nM; TGI (RXF 393 renal): 1780 nM; GI50 (HT29 colon): 444 nM; TGI (HT29 colon): 2280 nM; GI50 (SF-295 CNS): 2850 nM; TGI (SF-295 CNS): 10900 nM; GI50 (TK-10 renal): 1290 nM; TGI (TK-10 renal): 2650 nM; GI50 (MDA-MB-231 breast): 352 nM; TGI (MDA-MB-231 breast): 2610 nM; GI50 (ACHN renal): 2440 nM; TGI (ACHN renal): 8150 nM; GI50 (SF-539 CNS): 288 nM; TGI (SF-539 CNS): 3260 nM; GI50 (SF-268 CNS): 867 nM; TGI (SF-268 CNS): 3460 nM; GI50 (HL-60(TB) leukemia): 306 nM; TGI (HL-60(TB) leukemia): 1550 nM; GI50 (SNB-19 CNS): 1680 nM; TGI (SNB-19 CNS): 15300 nM; GI50 (NCI-H226 lung): 214 nM; TGI (NCI-H226 lung): 6120 nM; GI50 (SK-MEL-28 melanoma): 954 nM; TGI (SK-MEL-28 melanoma): 2180 nM; GI50 (HS 578T breast): 804 nM; TGI (HS 578T breast): 5300 nM; GI50 (786-0 renal): 2080 nM; TGI (786-0 renal): 6220 nM; GI50 (A498 renal): 2720 nM; TGI (A498 renal): 10600 nM; GI50 (HCT-15 colon): 1990 nM; TGI (HCT-15 colon): 12200 nM; GI50 (T-47D breast): 2570 nM; TGI (T-47D breast): 23900 nM; GI50 (OVCAR-4 ovarian): 1580 nM; TGI (OVCAR-4 ovarian): 16800 nM; GI50 (SN12C renal): 850 nM; TGI (SN12C renal): 4480 nM; GI50 (OVCAR-8 ovarian): 1290 nM; TGI (OVCAR-8 ovarian): 5390 nM; GI50 (UACC-62 melanoma): 1360 nM; TGI (UACC-62 melanoma): 5050 nM; GI50 (MALME-3M melanoma): 496 nM; TGI (MALME-3M melanoma): 1520 nM; GI50 (NCI-H522 lung): 234 nM; TGI (NCI-H522 lung): 1270 nM; GI50 (SNB-75 CNS): 593 nM; TGI (SNB-75 CNS): 3180 nM; GI50 (HOP-92 NSCLC): 138 nM; TGI (HOP-92 NSCLC): 538 nM; GI50 (DU-145 prostate): 1390 nM; TGI (DU-145 prostate): 5730 nM; GI50 (UACC-257 melanoma): 1070 nM; TGI (UACC-257 melanoma): 3340 nM; GI50 (OVCAR-5 ovarian): 1410 nM; TGI (OVCAR-5 ovarian): 9400 nM; GI50 (COLO 205 colon): 348 nM; TGI (COLO 205 colon): 1350 nM; GI50 (HOP-62 NSCLC): 1020 nM; TGI (HOP-62 NSCLC): 3710 nM
